{
  "source": "patent US12311049B2",
  "about": "“Formulation of ear drops and methods for delivery thereof for treating upper respiratory infections” (priority 2023, dated 2025)",
  "assay_type_in_all_cases": "cell-based",
  "key": {"[1]": {"system": "SARS-CoV-2 BA.1"}, "[2]": {"system": "SARS-CoV-2 BA.2"}, "[3]": {"system": "SARS-CoV-2 BA.5"}, "[4]": {"system": "SARS-CoV-2 XBB"}, "[5]": {"system": "SARS-CoV-2 XBB1.5"}, "[6]": {"system": "original WA1 viral strain of SARS-CoV-2", "experiment": "in vitro infectivity of SARS-CoV-2 to epithelial cells expressing ACE-2 and TMPRSS-2 (virus-NP protein in culture media)", "conditions": "MOI 0.01"}},
  "data": [
    {"substance": "hemin", "values": [
      {"measurement": "dose response of inhibition of SARS-CoV-2 BA.1 (virus-NP protein levels)", "setting": "[1]", "result": "dose-dependent inhibition"},
      {"measurement": "protection of cells against SARS-CoV-2 BA.1 infection", "setting": "[1]", "result": "protected cells"},
      {"measurement": "suppression of replication of SARS-CoV-2 BA.2", "setting": "[2]", "result": "significantly suppressed replication"},
      {"measurement": "suppression of replication of SARS-CoV-2 BA.5", "setting": "[3]", "result": "significantly suppressed replication"},
      {"measurement": "suppression of replication of SARS-CoV-2 XBB", "setting": "[4]", "result": "significantly suppressed replication"},
      {"measurement": "suppression of replication of SARS-CoV-2 XBB1.5", "setting": "[5]", "result": "significantly suppressed replication"},
      {"measurement": "suppression of SARS-CoV-2 infection, original WA1 viral strain", "setting": "[6]", "result": "markedly suppressed"}
    ]}
  ]
}
